# Data reported in the NIST ThermoML archive (doi:10.1016/j.jct.2004.12.003).
# Numbers after ± are expanded uncertainties.
# How the values were obtained:
# [1] = Liquid; for mass density: 293.15 K, 101.33 kPa
# [2] = refractive index (Na D-line) (dimensionless); conditions: 293.15 K; 101.33 kPa; Liquid; Standard Abbe refractometry
SMILES,mass density [1],Normal boiling temperature [1],refractive index [2]
"COC(=O)c1ccccc1C(=O)OC [dimethyl 1,2-benzenedicarboxylate]",1191 ± 0.8 kg/m3,283.93 ± 0.08 °C,1.514 ± 0.0011
CCC(=O)O [propanoic acid],992.7 ± 0.5 kg/m3,141.0 ± 0.08 °C,1.3811 ± 0.0011
